Measured values published in ChEMBL document CHEMBL1143567, “Hierarchical database screenings for HIV-1 reverse transcriptase using a pharmacophore model, rigid docking, solvation docking, and MM-PB/SA” (J Med Chem, 2005).

The compounds below were run on Human immunodeficiency virus 1 (assay: Concentration required to inhibit 50% viral production of human immunodeficiency virus type 1 (HIV-1-IIIB)).
Assay type: functional, organism-based
For `C=CCN1Cc2cccc3[nH]c(=O)n(c23)CC1C` (stereo not given), the IC50 was 62 µM.
Compound `Cc1c(O)nc(OC2CCCCC2)nc1Cc1ccccc1` has an IC50 of 4.7 µM.
In the case of `O=C1Nc2ccc(Cl)cc2C(/C=C/C2CC2)(C(F)(F)F)N1` (stereo not given), the IC50 is reported as 0.0004 µM.
In the case of `CC(C)Nc1cccnc1N1CCN(C(=O)c2cc3cc(NS(C)(=O)=O)ccc3[nH]2)CC1` [DELAVIRDINE], the IC50 is reported as 1.1 µM.
Compound `CC(C)=CCN1Cc2cc(Cl)cc3nc(S)n(c23)CC1C` (stereo not given) [TIBO] has an IC50 of 0.033 µM.
Work on `O=C1c2ccccc2C2(c3ccccc3)SCCN12` (stereo not given) yielded an IC50 of 0.016 µM.
In the case of `S=C(NCCc1ccccn1)Nc1ccc(Br)cn1` [TROVIRDINE], the IC50 is reported as 0.02 µM.
For `CC(C)c1c(Cc2ccccc2)n(COCc2ccccc2)c(=O)[nH]c1=O`, the IC50 was 0.006 µM.
In the case of `CC(C)=CCOc1cc(NC(=S)c2ccoc2C)ccc1Cl` [UC 781], the IC50 is reported as 0.009 µM.
In the case of `Fc1cccc(Cl)c1CCNC(=S)Nc1nccs1`, the IC50 is reported as 0.05 µM.
With `O=C(O)C1=CC(=C(c2ccc(O)c(C(=O)O)c2)c2ccc(O)c(C(=O)O)c2)C=CC1=O` [AURINTRICARBOXYLIC ACID] the IC50 was 5 µM.
In the case of `CC1=C(C(=O)Nc2ccc(Cl)c(C(=O)OC(C)C)c2)SCCO1`, the IC50 is reported as 0.042 µM.
For `Fc1cccc(F)c1CC/N=C(\S)Nc1ccc(Br)cn1`, the IC50 was 0.01 µM.
Work on `O=C1Nc2ccc(Cl)cc2[C@@](C#CC2CC2)(C(F)(F)F)N1` yielded an IC50 of 0.00036 µM.
For `CC(C)c1nc(COC(N)=O)n(Cc2ccncc2)c1Sc1cc(Cl)cc(Cl)c1` [CAPRAVIRINE], the IC50 was 0.0031 µM.
With `COc1ccc2c(c1)N(C(=O)OC(C)C)C(CSC)C(S)=N2` (stereo not given) the IC50 was 0.006 µM.
Work on `CCCCCC=C(c1cc(Br)c(OC)c(C(=O)OC)c1)c1cc(Br)c(OC)c(C(=O)OC)c1` yielded an IC50 of 16 µM.
For `CC(C)OC(=O)c1cc(NC(=S)OC(C)C)ccc1Cl`, the IC50 was 0.029 µM.
With `S=C(NCCc1ccccc1)Nc1nccs1` the IC50 was 1.3 µM.
In the case of `CCN1c2cc([N+](=O)[O-])ccc2N(C)C(=O)c2cccnc21`, the IC50 is reported as 0.4 µM.
`CCN1c2ncccc2-c2ncc(C)n2-c2ccc(OC)nc21` gave an IC50 of 0.19 µM.
Compound `CC(C)=CCN1Cc2c(Cl)ccc3[nH]c(=S)n(c23)C[C@@H]1C` [TIVIRAPINE] has an IC50 of 0.003 µM.
In the case of `Cc1c(Sc2ccccc2)n(COCCO)c(=S)[nH]c1=O`, the IC50 is reported as 1.6 µM.
Compound `Cc1c(Sc2ccccc2)n(COCCO)c(=O)[nH]c1=O` [HEPT] has an IC50 of 7 µM.
`CC(=O)c1ccc(C)cc1NC(C(N)=O)c1c(Cl)cccc1Cl` (stereo not given) [LOVIRIDE] was tested, and the IC50 was 0.1 µM.
Work on `CC1Oc2c3c(c4c(-c5ccccc5)cc(=O)oc4c2C(O)C1C)OC(C)(C)C=C3` (stereo not given) yielded an IC50 of 1.4 µM.
For `CN1C(=O)c2ccccc2C1(N)c1ccccc1` (stereo not given), the IC50 was 10 µM.
For `O=C1Nc2ccc(Cl)cc2[C@@](C#CC2CC2)(C(F)(F)F)O1` [EFAVIRENZ], the IC50 was 0.00293 µM.
`Cc1cc(C)cc(Cc2c(C(C)C)c(=O)[nH]c(=O)n2COCCO)c1` showed an IC50 of 0.0027 µM.
`CCC1=CC(NCc2nc3c(C)ccc(C)c3o2)C(=O)N=C1C` (stereo not given) showed an IC50 of 0.05 µM.
In the case of `CC(=O)c1ccccc1NC(C(N)=O)c1c(Cl)cccc1Cl` (stereo not given), the IC50 is reported as 0.026 µM.
Work on `CCOCn1c(Cc2ccccc2)c(C(C)C)c(=O)[nH]c1=O` [EMIVIRINE] yielded an IC50 of 0.008 µM.
With `Cc1ccnc2c1NC(=O)c1cccnc1N2C1CC1` [NEVIRAPINE] the IC50 was 0.2 µM.
In the case of `NC(=O)C(Nc1ccccc1[N+](=O)[O-])c1c(Cl)cccc1Cl` (stereo not given), the IC50 is reported as 0.033 µM.
Work on `CC(=O)c1ccc(C)cc1NC(C(N)=O)c1c(Br)cccc1Br` (stereo not given) yielded an IC50 of 0.42 µM.
